# pEC50: −log10 of the molar value.
# Molecular target: T1, soluble guanylate cyclase (Homo sapiens, UniProt Q02153)
# T1 construct: expressed in transfected cells
# Test: CHO cellular assay (cGMP production, Cisbio cGMP HTRF)
# Assay type: cell-based
# Conditions: CHO K1 cells overexpressing human GUCYA3/GUCYB3 (clone 8E10), 1 mM IBMX, 20 uM ODQ, 1 h room temperature, listed 0.5 nM means actual EC50 ≤0.5 nM (quantification limit)
# Text: Chinese hamster ovary (CHO) cells overexpressing soluble guanylate cyclase were generated to test the effect of sGC activators in a cellular context. Human cDNAs for GUCYA3 (RefSeq: NM_000856.3) and GUCYB3 (RefSeq: NM_000857.1) were amplified by PCR from a HUVEC (Human Umbilical Vein Endothelial Cells) cDNA library and cloned into mammalian expression vectors. CHO K1 cells (ATCC CCL-61) were transfected using Lipofectamine 2000 following manufacturer's instructions and stably expressing clones were identified by antibiotic selection. CHO GUCY clone 8E10 was used for subsequent experiments.
# Cells were seeded at a density of 3000 cells/well in white 384-well proxyplates (Perkin Elmer) and incubated overnight, then the medium was removed and cells were washed with assay buffer (HBSS, 0.1% BSA, 1 mM IBMX, 20 uM ODQ). sGC activators were serially diluted in DMSO, then diluted in assay buffer prior to adding to cells (10 ul/well, final DMSO concentration 0.5%). Cells were incubated with compounds for 1 h room temperature, then assayed for cGMP production using Cisbio cGMP HTRF kit (62GM2PEC) according to manufacturer's instructions.
# The EC50s are calculated based on the amount of cGMP interpolated from the standard curve, using a 4-parameter sigmoidal dose-response.
# Compounds of invention are active on sGC activation. Data on Table 1 collected using the assay of Biological Example 1. The minimum EC50 quantification limit of the assay is 0.5 nM, therefore any compound listed as having an EC50 value of 0.5 nM has a actual EC50 of ≤0.5 nM.
# T1 sequence (Q02108 whole entry partner): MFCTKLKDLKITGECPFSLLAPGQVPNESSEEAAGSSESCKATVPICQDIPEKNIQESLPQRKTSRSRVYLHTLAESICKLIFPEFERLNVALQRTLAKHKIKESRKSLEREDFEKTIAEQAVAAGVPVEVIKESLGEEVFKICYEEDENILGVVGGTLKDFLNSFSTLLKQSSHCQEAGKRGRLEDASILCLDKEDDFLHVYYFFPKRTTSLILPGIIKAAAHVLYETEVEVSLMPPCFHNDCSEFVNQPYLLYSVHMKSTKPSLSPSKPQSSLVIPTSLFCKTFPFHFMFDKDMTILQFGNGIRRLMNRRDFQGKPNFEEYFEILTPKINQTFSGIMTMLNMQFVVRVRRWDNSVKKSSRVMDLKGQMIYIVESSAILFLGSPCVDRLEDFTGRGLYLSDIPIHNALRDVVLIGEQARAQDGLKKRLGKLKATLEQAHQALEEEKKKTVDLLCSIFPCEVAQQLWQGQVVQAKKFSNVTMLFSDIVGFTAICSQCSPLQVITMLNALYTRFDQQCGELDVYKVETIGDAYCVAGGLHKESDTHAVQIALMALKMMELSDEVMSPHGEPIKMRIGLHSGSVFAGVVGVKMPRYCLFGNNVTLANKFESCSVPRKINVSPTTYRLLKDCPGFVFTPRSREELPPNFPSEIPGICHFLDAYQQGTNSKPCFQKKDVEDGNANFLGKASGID
# T1 sequence (Q02153 whole entry): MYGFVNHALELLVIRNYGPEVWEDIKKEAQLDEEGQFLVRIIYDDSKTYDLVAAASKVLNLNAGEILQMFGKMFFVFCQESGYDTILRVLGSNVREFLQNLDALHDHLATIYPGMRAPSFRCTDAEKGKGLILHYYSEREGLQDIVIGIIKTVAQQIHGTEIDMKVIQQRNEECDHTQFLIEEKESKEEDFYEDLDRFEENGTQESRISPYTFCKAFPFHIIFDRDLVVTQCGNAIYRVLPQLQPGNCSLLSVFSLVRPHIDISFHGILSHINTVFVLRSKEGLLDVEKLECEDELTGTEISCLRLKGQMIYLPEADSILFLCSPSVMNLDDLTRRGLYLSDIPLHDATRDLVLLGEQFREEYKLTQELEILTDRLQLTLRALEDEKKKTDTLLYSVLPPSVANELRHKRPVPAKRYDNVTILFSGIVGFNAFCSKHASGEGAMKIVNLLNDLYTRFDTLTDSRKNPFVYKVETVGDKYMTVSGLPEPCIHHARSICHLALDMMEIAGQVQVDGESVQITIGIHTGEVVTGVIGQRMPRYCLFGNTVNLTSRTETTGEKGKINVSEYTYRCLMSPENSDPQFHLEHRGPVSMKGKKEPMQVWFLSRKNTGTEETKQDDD
row,SMILES,pEC50
1,"CCc1c(C(=O)O)cnn1-c1cccc(C2=C(COc3ccc(C4CCN(C(=O)C5CC5)CC4)cc3C)CCCC2)n1 [Example 9, 1-(6-(2-((4-(1-(Cyclopropanecarbonyl)piperidin-4-yl)-2-methylphenoxy)methyl)cyclohex-1-en-1-yl)pyridin-2-yl)-5-ethyl-1H-pyrazole-4-carboxylic acid]",≥ 9.30
2,"Cc1cc(C2CCN(C(=O)C3CC3)CC2)ccc1OCC1=C(c2cccc(-n3ncc(C(=O)O)c3C(F)(F)F)c2)CCCC1 [Example 10, 1-(6′-((4-(1-(Cyclopropanecarbonyl)piperidin-4-yl)-2-methylphenoxy)methyl)-2′,3′,4′,5′-tetrahydro-[1,1-biphenyl]-3-yl)-5-(trifluoromethyl)-1H-pyrazole-4-carboxylic acid]",9.00
3,"Cc1cc(C2CCN(C(=O)CN)CC2)ccc1OCC1=C(c2cccc(-n3ncc(C(=O)O)c3C(F)(F)F)n2)CCCC1 [Example 11, 1-(6-(2-((4-(1-(2-Aminoacetyl)piperidin-4-yl)-2-methylphenoxy)methyl)cyclohex-1-en-1-yl)pyridin-2-yl)-5-(trifluoromethyl)-1H-pyrazole-4-carboxylic acid]",6.96
4,"CCc1cc(OCC2=C(c3cccc(-n4ncc(C(=O)O)c4C(F)(F)F)n3)CCCC2(C)C)ccc1C1CCN(C(=O)C2CC2)CC1 [Example 14, 1-(6-(2-((4-(1-(Cyclopropanecarbonyl)piperidin-4-yl)-3-ethylphenoxy)methyl)-3,3-dimethylcyclohex-1-en-1-yl)pyridin-2-yl)-5-(trifluoromethyl)-1H-pyrazole-4-carboxylic acid]",9.00
5,"Cc1cc(C2CCN(C(=O)C3CC3)CC2)ccc1OCC1=C(c2cccc(-n3ncc(C(=O)O)c3C(F)(F)F)n2)CCC1 [Example 21, 1-(6-(2-((4-(1-(Cyclopropanecarbonyl)piperidin-4-yl)-2-methylphenoxy)methyl)cyclopent-1-en-1-yl)pyridin-2-yl)-5-(trifluoromethyl)-1H-pyrazole-4-carboxylic acid]",8.62
6,"Cc1cc(C2CCN(C(=O)N(C)C)CC2)ccc1OCC1=C(c2cccc(-n3ncc(C(=O)O)c3C(F)(F)F)n2)CCC1 [Example 23, 1-(6-(2-((4-(1-(Dimethylcarbamoyl)piperidin-4-yl)-2-methylphenoxy)methyl)cyclopent-1-en-1-yl)pyridin-2-yl)-5-(trifluoromethyl)-1H-pyrazole-4-carboxylic acid]",8.46
7,"Cc1cc(C2CCN(CC(F)(F)F)CC2)ccc1OCC1=C(c2cccc(-n3ncc(C(=O)O)c3C(F)(F)F)n2)CCC1 [Example 25, 1-(6-(2-((2-Methyl-4-(1-(2,2,2-trifluoroethyl)piperidin-4-yl)phenoxy)methyl)cyclopent-1-en-1-yl)pyridin-2-yl)-5-(trifluoromethyl)-1H-pyrazole-4-carboxylic acid]",8.30
8,"CCc1cc(NCC2=C(c3cccc(-n4ncc(C(=O)O)c4C(F)(F)F)n3)CCCC2)ccc1C1CCN(C(=O)C2CC2)CC1 [Example 26, 1-(6-(2-(((4-(1-(Cyclopropanecarbonyl)piperidin-4-yl)-3-ethylphenyl)amino)methyl)cyclohex-1-en-1-yl)pyridin-2-yl)-5-(trifluoromethyl)-1H-pyrazole-4-carboxylic acid]",≥ 9.30

# Further lines, results first:
row,pEC50,SMILES
1,8.26,"CCc1cc(C2CCN(C(=O)C3CC3)CC2)ccc1OCC1=C(c2cccc(-n3ncc(C(=O)O)c3C(F)(F)F)n2)CCCC1 [Example 8-1, 1-(6-(2-((4-(1-(cyclopropanecarbonyl)piperidin-4-yl)-2-ethylphenoxy)methyl)cyclohex-1-en-1-yl)pyridin-2-yl)-5-(trifluoromethyl)-1H-pyrazole-4-carboxylic acid]"
2,7.47,"O=C(O)c1cnn(-c2cccc(C3=C(COc4ccc5c(c4)CCN(Cc4ccccn4)C5)CCCC3)n2)c1C(F)(F)F [Example 8-2, 1-(6-(2-(((2-(pyridin-2-ylmethyl)-1,2,3,4-tetrahydroisoquinolin-6-yl)oxy)methyl)cyclohex-1-en-1-yl)pyridin-2-yl)-5-(trifluoromethyl)-1H-pyrazole-4-carboxylic acid]"
3,7.72,"Cc1cc(C2CCN(C(=O)CO)CC2)ccc1OCC1=C(c2cccc(-n3ncc(C(=O)O)c3C(F)(F)F)n2)CCC1 [Example 24-1, 1-(6-(2-((4-(1-(2-hydroxyacetyl)piperidin-4-yl)-2-methylphenoxy)methyl)cyclopent-1-en-1-yl)pyridin-2-yl)-5-(trifluoromethyl)-1H-pyrazole-4-carboxylic acid]"
4,8.62,"CCC(=O)N1CCC(c2ccc(OCC3=C(c4cccc(-n5ncc(C(=O)O)c5C(F)(F)F)n4)CCC3)c(C)c2)CC1 [Example 24-2, 1-(6-(2-((2-Methyl-4-(1-propionylpiperidin-4-yl)phenoxy)methyl)cyclopent-1-en-1-yl)pyridin-2-yl)-5-(trifluoromethyl)-1H-pyrazole-4-carboxylic acid]"
5,7.66,"COC(=O)N1CCC(c2ccc(OCC3=C(c4cccc(-n5ncc(C(=O)O)c5C(F)(F)F)n4)CCC3)c(C)c2)CC1 [Example 24-3, 1-(6-(2-((4-(1-(Methoxycarbonyl)piperidin-4-yl)-2-methylphenoxy)methyl)cyclopent-1-en-1-yl)pyridin-2-yl)-5-(trifluoromethyl)-1H-pyrazole-4-carboxylic acid]"
6,8.62,"Cc1cc(C2CCN(S(C)(=O)=O)CC2)ccc1OCC1=C(c2cccc(-n3ncc(C(=O)O)c3C(F)(F)F)n2)CCC1 [Example 24-4, 1-(6-(2-((2-Methyl-4-(1-(methylsulfonyl)piperidin-4-yl)phenoxy)methyl)cyclopent-1-en-1-yl)pyridin-2-yl)-5-(trifluoromethyl)-1H-pyrazole-4-carboxylic acid]"
7,8.62,"Cc1cc(C2CCN(C(=O)C3CC3)CC2)ccc1NCC1=C(c2cccc(-n3ncc(C(=O)O)c3C(F)(F)F)n2)CCCC1 [Example 27-1, 1-(6-(2-(((4-(1-(Cyclopropanecarbonyl)piperidin-4-yl)-2-methylphenyl)amino)methyl)cyclohex-1-en-1-yl)pyridin-2-yl)-5-(trifluoromethyl)-1H-pyrazole-4-carboxylic acid]"
8,8.30,"O=C(O)c1cnn(-c2cccc(C3=C(CNc4ccc(C5CCN(C(=O)C6CC6)CC5)cc4)CCCC3)n2)c1C(F)(F)F [Example 27-2, 1-(6-(2-(((4-(1-(Cyclopropanecarbonyl)piperidin-4-yl)phenyl)amino)methyl)cyclohex-1-en-1-yl)pyridin-2-yl)-5-(trifluoromethyl)-1H-pyrazole-4-carboxylic acid]"

# From patent US9957254B2, “Cyclohexen-1-yl-pyridin-2-yl-1h-pyrazole-4-carboxylic acid derivatives and the use thereof as soluble guanylate cyclase activators” (Novartis AG, priority 2014, dated 2018)
